Experimental data from paper PMC4257840 (Journal of Medicinal Chemistry, 2014).

Assays:
[1] = tested on: nonsensitized rats challenged with a natural mixture of HDM allergens; conditions: i.t. aerosol typically 60-360 min prior to allergen challenge, unsensitised BN rats
[2] = target: T1, Human recombinant dipeptidyl peptidase IV (Homo sapiens, UniProt P27487); assay: Protease counter-screening: Dipeptidyl Dipeptidase IV; format: biochemical
T1 construct: host or cells: insect Sf9 cells
Method: (§1) Appendix 7. Protease Counter -Screening
(§2) Protease counter-screeni ng was performed using the methods described below. Initial screening was conducted in duplicate using a single test substance concentration of 10 µ M .
(§3) Additional assays were conducted in replicate for selected pairin gs of test s ubstance and enz yme in order to enable the determination of IC50 values using conventional procedures.
(§4) Determination of K i was made using the Batch K i program (Biokin Ltd, Pullman, WA) to derive values from the Morrison equation: […]
(§5) Where [E ] is the active enz yme concentration, Kiapp is the apparent inhibition const ant, v 0 is the control velocit y in the absence of inhibitors, vb is the background velocity, v is the initial reaction velocit y in the presence of inhibitor, and I is the inhibitor concentration.Thence:
(§6) Where [S ] is the substrate concentration and KM is the Michealis constant. […]
Test compound or vehicle was pre- incubated with 600 […]
The reaction was […]
initiated by addition of 1 µM N-CH3-SO2-D-FGR-pNA for another 120 min incubation period. […]
Factor Xa: Test compound or vehicle was pre -incubated for 15 min at 25 °C in modified 50 mM Tris-HCl buffer pH 7.6 containing 0.4 nM Factor Xa from human plasma. The reaction was initiated by addition of 0.3 mM N-a-Z-D-RGR-pNA for another 60 min incubation period. The amount of pNA form ed was measur ed at 405 nm. […]

[3] = tested on: Human pancreatic trypsin; assay: Protease counter-screening: Trypsin; format: biochemical; conditions: 10 µM
Method: as §1, §2, §3, §4, §5
Where [S ] is the substrate concentration and KM is the Michealis constant.
Caspase 1: Activity against human recombinant caspase 1 expressed in E. coli was tested using Ac-YVAD- AMC as the substrate. Test compound or vehicle was pre- incubated with 600 […]
followed by excitation/emission at 485/535 nm. […]
AMC formation was read at 360 nm/465 nm.
Cathepsin L2: Human recombinant cathepsin L2 expressed in NS0 cells was used as the enzyme source. […] Form ation of AMC was measured at 360 […]
The amount of AMC formed was read spectrofluorimetricall y at 360 nm/465 nm. […]

[4] = target: T2, Human liver cathepsin L (Homo sapiens, UniProt P07711); assay: Protease counter-screening: Cathepsin L; format: biochemical
T2 construct: Human liver cathepsin L was used as the; from tissue; host or cells: human liver

[5] = target: T3, Cathepsin C from bovine spleen (Bos taurus, UniProt Q3ZCJ8); assay: Protease counter-screening: Cathepsin C; format: biochemical
T3 construct: Cathepsin C from bovine spleen was used as the source of; from tissue; host or cells: bovine spleen
Method: as §1, §2, §3, §4, §5, §6
by addition of 50 µM Ac-DEVD-AMC for another 60 min incubation period. The amount of AMC formed was determined fluorimetricall y (excitation 360 nm/emission 465 nm). […]
by addition of 25 µM Ac-LEH D-A FC for another 60 min incubation period. The amount of amino-4- trifluorometh ylcoumarin (AFC) formed determined fluorimetrically (400nm/ 510nm).
Cathepsin C: Cathepsin C from bovine spleen was used as the source of enz yme. […] T he amount of AMC product formed was read spectrofluorimetrically

T3 sequence (Q3ZCJ8 25-463): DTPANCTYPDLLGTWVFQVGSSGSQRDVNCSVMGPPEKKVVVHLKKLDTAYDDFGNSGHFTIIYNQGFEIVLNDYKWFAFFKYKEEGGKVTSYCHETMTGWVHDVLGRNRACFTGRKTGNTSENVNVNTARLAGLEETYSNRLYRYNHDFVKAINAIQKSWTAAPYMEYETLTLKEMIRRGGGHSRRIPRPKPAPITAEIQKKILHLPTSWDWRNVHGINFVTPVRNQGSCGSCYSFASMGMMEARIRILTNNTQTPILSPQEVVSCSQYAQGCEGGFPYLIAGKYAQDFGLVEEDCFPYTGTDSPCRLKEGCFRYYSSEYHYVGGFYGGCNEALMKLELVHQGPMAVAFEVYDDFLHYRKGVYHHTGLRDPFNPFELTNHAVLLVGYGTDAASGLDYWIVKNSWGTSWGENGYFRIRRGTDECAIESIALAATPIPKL
T1 sequence (P27487 whole entry): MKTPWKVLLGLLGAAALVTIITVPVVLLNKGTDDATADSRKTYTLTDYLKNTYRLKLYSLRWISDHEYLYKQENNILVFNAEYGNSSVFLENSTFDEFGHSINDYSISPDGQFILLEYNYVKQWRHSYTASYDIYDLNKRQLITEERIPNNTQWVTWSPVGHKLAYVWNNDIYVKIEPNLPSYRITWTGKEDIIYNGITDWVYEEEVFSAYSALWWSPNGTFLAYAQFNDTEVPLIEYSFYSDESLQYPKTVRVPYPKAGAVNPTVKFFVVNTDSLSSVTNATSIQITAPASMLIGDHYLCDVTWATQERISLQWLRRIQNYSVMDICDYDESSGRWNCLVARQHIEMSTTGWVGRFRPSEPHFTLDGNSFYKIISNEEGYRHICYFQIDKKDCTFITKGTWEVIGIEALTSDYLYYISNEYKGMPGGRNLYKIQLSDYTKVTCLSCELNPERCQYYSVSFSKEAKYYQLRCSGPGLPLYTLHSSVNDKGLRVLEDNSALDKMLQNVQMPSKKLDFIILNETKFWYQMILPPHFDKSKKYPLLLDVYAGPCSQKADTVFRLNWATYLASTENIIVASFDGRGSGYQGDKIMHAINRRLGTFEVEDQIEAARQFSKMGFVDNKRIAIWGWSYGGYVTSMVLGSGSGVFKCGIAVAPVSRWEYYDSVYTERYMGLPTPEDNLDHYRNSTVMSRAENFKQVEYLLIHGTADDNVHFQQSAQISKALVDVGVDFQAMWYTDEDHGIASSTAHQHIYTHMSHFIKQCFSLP
T2 sequence (P07711 114-333): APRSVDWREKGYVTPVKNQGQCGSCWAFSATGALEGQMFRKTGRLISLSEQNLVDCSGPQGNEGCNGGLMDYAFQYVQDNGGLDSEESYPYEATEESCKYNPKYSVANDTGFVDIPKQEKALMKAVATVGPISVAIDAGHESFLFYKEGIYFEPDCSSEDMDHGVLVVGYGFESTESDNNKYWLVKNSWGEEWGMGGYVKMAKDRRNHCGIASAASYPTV

CC(C)[C@H](NC(=O)[C@H](C)NC(=O)[C@@H](NC(=O)c1ccccc1)C(C)(C)C)C(=O)C(=O)NCc1ccccc1 [Compound 38, N-{(S)-1-[(S)-1-((S)-1-Benzylaminooxalyl-2-methyl-propylcarbamoyl)-ethylcarbamoyl]-2,2-dimethyl-propyl}-benzamide]
duration of protection: trend of inhibition of eosinophil recruitment with increasing pre-treatment interval [1]: rise to well-maintained
inhibition at 10 µM [2]: 0%
Trypsin inhibition [3]: 9%
inhibition at 10 µM [4]: 34%
inhibition at 10 µM [5]: 0%
